From patent publication US5451518A, “Purified human ceramide-activated protein kinase” (Sloan-Kettering Institute for Cancer Research, priority 1992, dated 1995)
“Also recorded” adds a separate entry of the source. Like-named read-outs stand apart in the source and are kept apart here.

Legend:
[1] = test system: sphingomyelin (HL-60 nuclei-free supernate); assay: Sphingomyelin content in HL-60 cell-free system; type: biochemical, human
Procedure: (§1) HL-60 cells were grown in RPMI 1640 medium supplemented with 10% bovine calf serum and amino acids (4). To measure sphingomyelin, cells were resuspended (1×10^6 ml^-1), labeled for 48 hours in medium with [^3 H]choline (1 μCi ml^-1) (57), in serum-free medium containing bovine insulin (5 μg ml^-1) and human transferrin (5 μg ml^-1). After 3 hours, cells were resuspended (150×10^6 ml^-1) in homogenization buffer (50 mM NaF, 5 mM EGTA, and 25 mM Hepes, pH 7.4), disrupted at 4° C. with 150 strokes of a tight-fitting Dounce homogenizer (Fisher Scientific, Pittsburgh, Pa.), and centrifuged for 5 minutes (500 g). The nuclei-free supernate was first incubated for 5 minutes at 4° C. with 30 nM human TNF-α (Genentech, South San Francisco, Calif.) or diluent ( 50 mMHepes, pH 7.4). At time zero, 15 μl of supernate (112 μg per incubation) were added to a reaction mixture containing 30 μl of 25 mM Hepes, pH 7.4, 30 μl of 750 μM ATP, and 75 μl of reaction buffer (50 mM Hepes, pH 7.4 and 20 mM MgCl2) at 22° C. The reaction was terminated with CHCl3 :CH3 OH:HCl (100:100:1, v/v/v) (3, 4, 13) and 150 μl of balanced salt solution (135 mM NaCl, 4.5 mM KCl, 1.5 mM CaCl2, 0.5 mM MgCl2, 5.6 mM glucose, and 10 mM Hepes, pH 7.2) containing 20 mM EDTA. Lipids in the organic phase extract were subjected to alkaline methanolysis to remove glycerophospholipids (4). Sphingomyelin recovery in the nuclei-free supernate was 93% of that in intact cells. A measure of 10^6 cell equivalents of supernate contained 50 μg of protein. Sphingomyelin was resolved by thin-layer chromatograhy (TLC) with CHCl3 :CH3 OH:CH3 COOH:H2 O (25:15:4:1.5 ) as solvent, identified by iodine vapor staining and quantified by liquid scintillation spectrometry (1, 8, 56). Ceramide was quantified with the diacyglycerol kinase reaction (4, 57). Values (mean) are derived from triplicate determinations from one experiment representative of three similar studies for sphingomyelin and four similar studies for ceramide.
(§2) The binding of TNF-α to its receptor is detectable within 2 minutes and maximal by 5 to 10 minutes at 4° C. in membranes derived from HL-60 cells (41). Therefore, supernates from HL-60 cells, collected after a low-speed centrifugation to remove nuclei, were first incubated with TNF-α for 5 minutes at 4° C. to allow the formation of TNF-receptor complexes. Thereafter, reactions were initiated by warming supernates to 22° C. in a reaction mixture containing adenosine triphosphate (ATP) and Mg^2+ at pH 7.4.
These conditions were adopted to allow for activation of neutral sphingomyelinase (1, 42). Under these conditions, TNF-α induced a time- and concentration-dependent reduction in sphingomyelin content (FIG. 9A). the effect of TNF-α was evident at 1 minute and maximal by 7.5 minutes. Sphingomyelin concentrations decreased 27% from a control concentration of 10.4±0.5 (mean ± SEM) to 7.6±0.2 nmol per milligram (nmol mg^-1) of supernate protein (P<0.001). […] Concentrations of TNF-α of 300 pM were ineffective, with a maximal effect at 3 nMTNF-α [effective dose (ED50)≈500 pM]. Under the same conditions, ceramide increased quantitatively from 1.8±0.3 to 4.0±0.5 nmol mg^-1 (FIG. 9B). This effect was detectable at 1 minute (P<0.001) and maximal by 7.5 minutes. Thus, 2.8 nmol of sphingomyelin per milligram of supernate protein were lost for each 2.2 nmol of ceramide per milligram of supernate protein that was generated. […] Other choline-containing lipids, including phosphatidyl-choline, lysophosphatidylcholine, sphingosylphosphorylcholine(1), and 1,2-diacylglycerol were not affected by TNF-α.

[2] = test system: ceramide (HL-60 nuclei-free supernate); assay: Ceramide content in HL-60 cell-free system; type: biochemical, human
Procedure: as §1, §2
These conditions were adopted to allow for activation of neutral sphingomyelinase (1, 42). […] Under the same conditions, ceramide increased quantitatively from 1.8±0.3 to 4.0±0.5 nmol mg^-1 (FIG. 9B). […]

[3] = test system: ceramide-activated protein kinase; assay: Ceramide-activated protein kinase activity in HL-60 cell-free system; type: biochemical, human
Procedure: HL-60 cells were incubated in serum-free medium and homogenized (as in FIGS. 9A and 9B). […] ATP (750 μM, 4000 dpm pmol^-1), and 75 μl of reaction buffer (40). The reaction was terminated by adding 30 μl of 0.5M ATP in 90% formic acid. Phosphorylated peptide was first run on a C18 Sep-Pak cartridge, then resolved by C18 reverse-phase HPLC (Waters, Milford, Mass.), with a linear gradient of acetonitrile. The peptide eluted at 30% acetonitrile, as determined by monitoring Cerenkov radiation in 1-ml fractions. Background activity was subtracted from each point. (FIG. 10A) Kinetics of TNF-α (30 nM)-stimulated EGFR peptide phosphorylation. Values (mean) represent data from four experiments. (FIG. 10B) Concentration dependence of EGFR peptide phosphorylation at 5 minutes of stimulation with TNF-α (0.01 to 30 nM). Values (mean) represent data derived from duplicate points in two experiments. The SEM of the values in (FIG. 10A) was 18% and the mean range of values in (FIG. 10B) was 3%.
Peptide phosphorylation was measured as in FIGS. 10A nad 10B. Control value represents peptide phosphorylation in the absence of phospholipases or TNF-α. Values (mean ± SEM) represent data derived from duplicate samples in three experiments. *P<0.001 compared to control.
as §2
The effect of TNF-α on ceramide-activated protein kinase activity was assessed. […] For studies assessing the effect of TNFα in broken cell preparations, nuclei-free supernates were incubated under conditions sufficient for stimulation of neutral sphingomyelinase in a reaction mixture that also contained EGFR peptide and γ-^32 P-labeled ATP. Phosphorylated peptide was resolved by high-performance liquid chromatograph (HPLC) and quantified by Cerenkov counting (40). Kinase activity was calculated from the specific activity of [γ-^32 P] ATP and incorporation of ^32 P into EGFR peptide. Background activity was subtracted from each point. […] If the initial incubation with TNF-α at 4° C. was omitted and TNF was added directly to the reaction mixture at 22° C., the reaction was delayed. […] TNF-α enhanced kinase activity in a concentration-dependent manner at 5 minutes (FIG. 10B). […] This is similar to the ED50 of 200 pM for stimulation of ceramide-activated protein kinase by TNF-α in intact cells (40). TNF-α enhanced kinase activity in a total of 20 separate studies.
Control activity reflects several TNF-α-independent protein kinases that are known to phosphorylate EGFR peptide on Thr^669.

[4] = test system: phosphatidyl-choline, lysophosphatidylcholine, sphingosylphosphorylcholine, 1,2-diacylglycerol; assay: Other choline-containing lipids and diacylglycerol in HL-60 cell-free system; type: biochemical, human; details: TNF-α
[5] = test system: ceramide-activated protein kinase
[6] = test system: ceramide-activated protein kinase; details: cited from earlier work
HL-60 cells [7] = details: cited from earlier work
HL-60 cells [8] = details: cited from earlier work; remark: listed apart in the source

## TNF-α
[1]; TNF-α
  concentration for maximal effect on sphingomyelin: 3 nM
  effective dose (ED50), sphingomyelin reduction: ≈ 500 pM
  sphingomyelin lost: 2.8 nmol per milligram of supernat
  time at which sphingomyelin reduction was evident: 1 min
  time to maximal sphingomyelin reduction: ≤ 7.5 min
[1]; TNF-α, P<0.001
  decrease in sphingomyelin concentration: 27%
[1]; mean ± SEM, control 10.4±0.5, P<0.001
  sphingomyelin concentration after TNF-α: 7.6±0.2 nmol per milligram (nmol mg^-1) of supernate protein
[2]; TNF-α
  ceramide generated: 2.2 nmol per milligram of supernat
  time to maximal ceramide increase: ≤ 7.5 min
[2]; TNF-α, P<0.001
  time at which ceramide increase was detectable: 1 min
[2]; from 1.8±0.3
  ceramide concentration after TNF-α: 4.0 ± 0.5 nmol/mg
[3]; TNF added directly at 22° C., no 4° C. incubation
  delay before enhancement of kinase activity: 2 min
[3]; TNF-α 30 nM
  duration of stimulation of kinase activity: at least 10 minutes
  time at which stimulation of kinase activity was evident: evident by i minute
[3]; TNF-α 30 nM, GTP, GTP-γ-S 0.25 to 200 μM, SMase 1×10^-3 U ml^-1, 5 minutes, phospholipases 40- to 400-fold higher
  effect on kinase activity (in words): enhanced kinase activity (P<0.001)
[3]; TNF-α, 5 minutes
  concentration for maximal effect: 3 nM
  effective concentration: 10 pM
[3]; TNF-α, 5 minutes, cell-free
  ED50 for kinase activity: ≈ 300 pM
[4]
  effect on phosphatidyl-choline, lysophosphatidylcholine, sphingosylphosphorylcholine and 1,2-diacylglycerol: not affected
[5]; TNF-α 3 pM, 60 minutes
  increase in kinase activity: 1.1 -fold of control
[5]; TNF-α 30 nM, 5 minutes
  increase in kinase activity: 1.5 -fold of control
[5]; TNF-α 30 nM, 60 minutes
  maximal effect on kinase activity: 1.8 -fold of control
[5]; TNF-α 30 nM, 2 hours
  increase in kinase activity: 2.2 -fold of control
[5]; TNF-α 30 nM, 2 hours, listed as TNF
  increase in kinase activity: 2 -fold of control
[5]; TNF-α, 60 minutes, intact cells
  ED50 for kinase activity: ≈ 200 pM
[6]; intact HL-60 cells
  effect on kinase activity (in words): rapidly increased; also recorded: similarly enhanced kinase activity in intact cells
[6]; intact cells
  ED50 for stimulation of ceramide-activated protein kinase: 0.2 nM
HL-60 cells [7]; also for monocyte differentiation
  maximally effective concentration for generation of ceramide: 30 nM
HL-60 cells [7]
  sphingomyelin degradation to ceramide / ceramide level (in words): increase cellular levels of ceramide within minutes; also recorded: activates a neutral sphingomyelinase to generate ceramide
HL-60 cells [7]; listed as Tumor necrosis factor (TNF) α
  sphingomyelin degradation to ceramide / ceramide level (in words): stimulate sphingomyelin degradation to ceramide
HL-60 cells [8]
  monocytic differentiation: induce monocytic differentiation
